Our source for the IC50, Activity and inhibition values is ChEMBL document CHEMBL4330150, “Synthesis and biological evaluation of pyrazole linked benzothiazole-β-naphthol derivatives as topoisomerase I inhibitors with DNA binding ability” (Bioorg Med Chem, 2019).

For one assay, the system named is A549. As to the kind of experiment: Antiproliferative activity against human A549 cells after 48 hrs by MTT assay. In kind it is functional, cell-based. The following applies: A549, 48 h. (In general: Formazan colour is commonly taken as a measure of viable cells.)
In a further assay the test system is MCF7. As to the kind of experiment: Antiproliferative activity against human MCF7 cells after 48 hrs by MTT assay. In kind it is functional, cell-based. The following applies: MCF7, 48 h.
Assay [1] has as its system HeLa. In words: Antiproliferative activity against human HeLa cells after 48 hrs by MTT assay. In kind it is functional, cell-based.
A further assay has as its system HEK293. In words: Antiproliferative activity against HEK293 cells after 48 hrs by MTT assay. In kind it is cell-based. The following applies: Homo sapiens, HEK293, 48 h.
For assay [2], the system named is HeLa. As to the kind of experiment: Cell cycle arrest in human HeLa cells assessed as accumulation at sub-G1 phase at 2.5 uM after 48 hrs by propidium iodide staining based FACS analysis (reference value: 1.69%). In kind it is functional. Background: In flow cytometry, cells or beads pass a laser one at a time.
Assay [3] has as its system HeLa. In words: Cell cycle arrest in human HeLa cells assessed as accumulation at G1 phase at 2.5 uM after 48 hrs by propidium iodide staining based FACS analysis (reference value: 73.5%). The format is functional.
In assay [4] the test system is HeLa. As to the kind of experiment: Cell cycle arrest in human HeLa cells assessed as accumulation at S phase at 2.5 uM after 48 hrs by propidium iodide staining based FACS analysis (reference value: 5.58%). The format is functional.
Assay [5] relates to HeLa. As to the kind of experiment: Cell cycle arrest in human HeLa cells assessed as accumulation at G2/M phase at 2.5 uM after 48 hrs by propidium iodide staining based FACS analysis (reference value: 13.9%). In kind it is functional.
Assay [6] deals with HeLa. As to the kind of experiment: Cell cycle arrest in human HeLa cells assessed as accumulation at sub-G1 phase at 5 uM after 48 hrs by propidium iodide staining based FACS analysis (reference value: 1.69%). The format is functional.
Assay [7] deals with HeLa. In words: Cell cycle arrest in human HeLa cells assessed as accumulation at G1 phase at 5 uM after 48 hrs by propidium iodide staining based FACS analysis (reference value: 73.5%). In kind it is functional.
Assay [8] has as its system HeLa. In words: Cell cycle arrest in human HeLa cells assessed as accumulation at S phase at 5 uM after 48 hrs by propidium iodide staining based FACS analysis (reference value: 5.58%). The format is functional.
Assay [9] concerns HeLa. In words: Cell cycle arrest in human HeLa cells assessed as accumulation at G2/M phase at 5 uM after 48 hrs by propidium iodide staining based FACS analysis (reference value: 13.9%). The format is functional.
The subject of assay [10] is Calf thymus DNA. As to the kind of experiment: Binding affinity to calf thymus DNA assessed as hypochromicity at 10 uM by UV-Visible spectrophotometric method. The format is nucleic-acid assay. The following applies: Bos taurus.
Assay [11] deals with Calf thymus DNA. As to the kind of experiment: Binding affinity to calf thymus DNA assessed as hypochromicity shift at 10 uM by fluorescence spectral analysis. In kind it is nucleic-acid assay. The following applies: Bos taurus.
The subject of assay [12] is Calf thymus DNA. In words: Binding affinity to calf thymus DNA assessed as hypochromicity shift in positive band at DNA to compound ratio of 1:1 by CD spectral analysis. The format is nucleic-acid assay. The following applies: Bos taurus.
The subject of assay [13] is Calf thymus DNA. In words: Binding affinity to calf thymus DNA assessed as hypochromicity shift in positive band at DNA to compound ratio of 1:2 by CD spectral analysis. The format is nucleic-acid assay. The following applies: Bos taurus.
For assay [14], the system named is Calf thymus DNA. As to the kind of experiment: Binding affinity to calf thymus DNA assessed as hypochromicity shift in negative band at DNA to compound ratio of 1:1 to 1:2 by CD spectral analysis. In kind it is nucleic-acid assay. The following applies: Bos taurus.
In assay [15] the test system is Calf thymus DNA. As to the kind of experiment: Binding affinity to calf thymus DNA assessed as DNA intercalation by measuring increase in viscosity at 15 uM by Ostwald viscometric method. The format is nucleic-acid assay. The following applies: Bos taurus.
The target in assay [16] is T1, DNA topoisomerase 1 (Homo sapiens) (UniProt P11387).
T1 sequence (whole entry): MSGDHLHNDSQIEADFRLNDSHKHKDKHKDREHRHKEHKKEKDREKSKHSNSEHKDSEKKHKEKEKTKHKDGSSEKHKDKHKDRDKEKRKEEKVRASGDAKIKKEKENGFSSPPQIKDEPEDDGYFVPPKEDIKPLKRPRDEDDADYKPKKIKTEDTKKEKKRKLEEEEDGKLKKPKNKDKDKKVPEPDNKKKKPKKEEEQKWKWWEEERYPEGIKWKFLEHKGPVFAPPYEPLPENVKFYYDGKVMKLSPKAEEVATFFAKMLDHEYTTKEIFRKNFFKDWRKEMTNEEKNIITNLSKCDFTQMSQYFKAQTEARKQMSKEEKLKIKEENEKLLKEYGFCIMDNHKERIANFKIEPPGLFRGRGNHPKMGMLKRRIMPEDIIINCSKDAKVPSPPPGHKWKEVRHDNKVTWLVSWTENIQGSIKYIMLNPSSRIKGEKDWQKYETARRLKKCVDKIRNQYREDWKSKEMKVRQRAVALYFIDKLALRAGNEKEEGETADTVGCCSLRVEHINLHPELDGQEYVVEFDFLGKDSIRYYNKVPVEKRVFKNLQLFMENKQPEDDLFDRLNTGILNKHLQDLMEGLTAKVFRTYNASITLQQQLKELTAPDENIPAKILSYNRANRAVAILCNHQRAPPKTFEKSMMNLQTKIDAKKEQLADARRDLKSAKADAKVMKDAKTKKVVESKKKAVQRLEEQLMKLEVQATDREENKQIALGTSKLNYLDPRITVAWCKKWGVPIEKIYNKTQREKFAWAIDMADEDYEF
In words: Inhibition of topoisomerase-1 (unknown origin) at 100 uM using pBR322 DNA as substrate after 30 mins by agarose gel electrophoresis method.

Calls of active or inactive are those of the source. The calls are words filed in the database; no cut-off is given here.

By IC50 is commonly meant the concentration that inhibits the measured activity by half. A high value points to weaker potency in that assay.

As for `COc1ccc2nc(NC(c3cn(-c4ccccc4)nc3-c3ccc(F)cc3)c3c(O)ccc4ccccc34)sc2c1` (stereo not drawn), the IC50 worked out at 33.6 µM in the assay on A549, 16.9 µM in the assay on MCF7, 4.63 µM in the assay on HeLa [1] and 58.1 µM with HEK293. Besides, the Activity in the assay on HeLa [2] amounted to 2.79%; with HeLa [3] it was 57.5%; in the assay on HeLa [4], 11.5%; in the assay with HeLa [5], 25.3%; with HeLa [6], 3.09%; in the assay on HeLa [7], 60%. The Activity with HeLa [8] was determined as 5.08%; in the assay on HeLa [9], 28.2%; in the assay with Calf thymus DNA [11], 507 nm. The result with Calf thymus DNA [10], with Calf thymus DNA [12], with Calf thymus DNA [13] and in the assay with Calf thymus DNA [14] was Active. Further, in the assay on Calf thymus DNA [15], the outcome was inactive. Moreover, in assay [16], the inhibition entry is “Active”.
With `COc1ccc2nc(NC(c3cn(-c4ccccc4)nc3-c3ccc(Cl)cc3)c3c(O)ccc4ccccc34)sc2c1` (stereo not drawn), the IC50 in the assay with A549 was found to be 34.5 µM; in the assay on MCF7 it was 23.7 µM; with HeLa [1] it was 5.2 µM; in the assay with HEK293 it was 56 µM. Further, the Activity in the assay with HeLa [2] is listed as 2.33%; in the assay on HeLa [3], 66.2%; with HeLa [4], 8.89%; in the assay on HeLa [5] it was 19.9%; in the assay on HeLa [6] it was 2.03%; with HeLa [7], 66.5%. The Activity came out at 9.03% in the assay with HeLa [8], 20% with HeLa [9] and 507 nm in the assay with Calf thymus DNA [11]. The result in the assay with Calf thymus DNA [10], in the assay with Calf thymus DNA [12], in the assay with Calf thymus DNA [13] and in the assay on Calf thymus DNA [14] was Active. Moreover, in the assay on Calf thymus DNA [15], the result was inactive. In addition, the inhibition entry in [16] was “Active”.
